In ChEMBL document CHEMBL1143350, “Structure and activity of (2,8)-dicarba-(3,12)-cystino alpha-ImI, an alpha-conotoxin containing a nonreducible cystine analogue” (J Med Chem, 2009):
The source made the active and inactive calls. No cut-off for these calls is given here.

Key:
[1] = (§1) Antagonist activity at nAChR in nicotine-stimulated bovine adrenal chromaffin cells assessed as inhibition of noradrenaline release preincubated for 5 mins before nicotine challenge by RP-HPLC; assay type: functional; conditions: Bos taurus
[2] = species: Bos taurus; assay: as §1; assay type: functional
[3] = (§2) Antagonist activity at nAChR in nicotine-stimulated bovine adrenal chromaffin cells assessed as inhibition of adrenaline release preincubated for 5 mins before nicotine challenge by RP-HPLC; assay type: functional; conditions: Bos taurus
[4] = species: Bos taurus; assay: as §2; assay type: functional
[5] = target: Neuronal acetylcholine receptor subunit alpha-7 (Rattus norvegicus) (UniProt Q05941); assay: Antagonist activity at rat alpha7 nAChR expressed in Xenopus laevis oocytes assessed as inhibition of acetylcholine-evoked ion current at 2.5 uM treated 3 mins prior to acetylcholine challenge measured after 2 to 4 days by two-electrode voltage clamp method; assay type: functional, cell-based; set-up: scale not given: the % may be the effect or the level left; conditions: Oocyte
Chain of Neuronal acetylcholine receptor subunit alpha-7 (Rattus norvegicus) (Q05941 whole entry): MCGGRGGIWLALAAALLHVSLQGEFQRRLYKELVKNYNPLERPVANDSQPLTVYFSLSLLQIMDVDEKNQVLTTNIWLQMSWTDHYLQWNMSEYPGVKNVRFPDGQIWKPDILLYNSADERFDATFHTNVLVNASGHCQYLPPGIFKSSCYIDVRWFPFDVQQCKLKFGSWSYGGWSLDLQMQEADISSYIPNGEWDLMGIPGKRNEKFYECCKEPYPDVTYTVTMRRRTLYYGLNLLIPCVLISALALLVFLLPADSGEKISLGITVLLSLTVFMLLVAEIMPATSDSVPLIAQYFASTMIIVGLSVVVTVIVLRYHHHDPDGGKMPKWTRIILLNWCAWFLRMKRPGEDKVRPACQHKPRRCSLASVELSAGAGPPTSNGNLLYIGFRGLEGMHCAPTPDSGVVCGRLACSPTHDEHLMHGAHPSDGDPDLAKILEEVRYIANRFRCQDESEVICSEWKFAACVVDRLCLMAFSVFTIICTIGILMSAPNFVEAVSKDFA

[6] = target: Neuronal acetylcholine receptor subunit alpha-7 (Rattus norvegicus) (UniProt Q05941); assay: Activation of rat alpha7 nAChR expressed in Xenopus laevis oocytes at 2.5 uM; assay type: cell-based; conditions: Oocyte

| SMILES | IC50 [1] [µM] | Activity [2] | IC50 [3] [µM] | Activity [4] | Activity [5] | Activity [6] |
| --- | --- | --- | --- | --- | --- | --- |
| C=CN(CC(=O)NC1C/C=C/CC2NC(=O)[C@H](CCCNC(=N)N)NC(=O)[C@@H]3CCCN3C(=O)[C@H](CC(=O)O)NC(=O)[C@H](CO)NC(=O)[C@H](CSSC[C@@H](C(=O)O)NC(=O)[C@H](CCCNC(=N)N)NC(=O)[C@H](Cc3c[nH]c4ccccc34)NC(=O)[C@H](C)NC2=O)NC1=O)C(=O)CN (single isomer, unassigned) | 20 | Dose-dependent effect | 15 | Dose-dependent effect | inactive |  |
| C=CN(CC(=O)NC1C/C=C\CC2NC(=O)[C@H](CCCNC(=N)N)NC(=O)[C@@H]3CCCN3C(=O)[C@H](CC(=O)O)NC(=O)[C@H](CO)NC(=O)[C@H](CSSC[C@@H](C(=O)O)NC(=O)[C@H](CCCNC(=N)N)NC(=O)[C@H](Cc3c[nH]c4ccccc34)NC(=O)[C@H](C)NC2=O)NC1=O)C(=O)CN (single isomer, unassigned; isomer I) | 17 | Dose-dependent effect | 10 | Dose-dependent effect | 60% | inactive |
| C[C@H](NC(=O)[C@H](CS)NC(=O)[C@H](CCCNC(=N)N)NC(=O)[C@@H]1CCCN1C(=O)[C@H](CC(=O)O)NC(=O)[C@H](CO)NC(=O)[C@H](CS)NC(=O)[C@H](CS)NC(=O)CN)C(=O)N[C@@H](Cc1c[nH]c2ccccc12)C(=O)N[C@@H](CCCNC(=N)N)C(=O)N[C@@H](CS)C(N)=O | 0.87 | Dose-dependent effect | 1.12 | Dose-dependent effect | 68% | inactive |
